Source: patent publication US20240254162A1, “CYCLOTHEONELLAZOLEA, AND SYNTHETIC METHOD THEREFOR, AND APPLICATION METHOD THEREOF” (The Second People's Hospital of Shenzhen(Shenzhen Institute …, priority 2022, published 2024)
Numbered stars: 1 amine (or outer) side, 2 acyl side, 3 side chain; on linkers, the order of the positions; unused ones are H or OH. Bridge positions count the residues as written; N and C are the ends. Square brackets hold non-standard residues; d marks the D form. Peptide text beside a SMILES is read from it. * marks the point of attachment. X2 = O=C(/C=C/c1csc([C@H](Cc2ccc(O)cc2)N[*:1])n1)[*:2]; X1 = CC[C@H](C)[C@H](N[*:1])C(=O)C(=O)[*:2]; Benzoyl(4-OH) = O=C(c1ccc(O)cc1)*; Cya = N[C@@H](CS(=O)(=O)O)C(=O)O; Nva = CCC[C@H](N)C(=O)O; Dap = NC[C@H](N)C(=O)O

Legend:
Assay type in all cases: biochemical
[1] = molecular target: T1, mainprotease (Mpro) of SARS-COV-2 virus (Severe acute respiratory syndrome coronavirus 2, UniProt P0DTD1); assay: Inhibition effect of CA on Mpro enzyme activity (BPS Bioscience Mpro detection kit 78042-2, fluorescence); details: incubated at room temperature for 30 min; Ex/Em=360/460 nm; FIG. 2
T1 construct: Mainprotease (Mpro) of SARS-COV-2 Virus; purchased BPS Bioscience 78042-2

[2] = molecular target: T2, transmembrane serine protease 2 (TMPRSS2) (Homo sapiens, UniProt O15393); assay: Inhibition effect of CA on TMPRSS2 enzyme activity (BPS Bioscience TMPRSS2 detection kit 78083, fluorescence); details: incubated at room temperature for 30 min; Ex/Em=383/455 nm; FIG. 1
T2 construct: purchased BPS Bioscience 78083
Description: • 1. Experimental materials include a TMPRSS2 detection kit (78083) of a BPS Bioscience company and CA. • 2. Experimental methods are as follows. In a black 96-well plate, a blank well group, a negative control well group and a sample well group are set, and a detection system is 50 microliters (μL). The blank well group is added with 40 μL of buffer, the negative control well group is added with 30 μL of TMPRSS2 protease and 10 μL of buffer, the sample well group is added with 30 μL of TMPRSS2 protease and 10 μL of CA solution (respectively with concentrations of 0.1 micromole per liter abbreviated as μM, 1 μM, 10 μM, 30 μM, 100 μM, 150 μM, and 200 μM), and the three groups are incubated at the room temperature for 30 min. Each well is added with 10 μL of substrate, after mixing evenly, fluorescence value of each well is immediately detected at excitation/emission (Ex/Em)=383/455 nanometers (nm), every 30 seconds, and a dynamic process within a range of 0-40 min is observed. Two different time points (T1 and T2) are selected within a linear range of the dynamic process to obtain fluorescence values (RFUT1 and RFUT2) corresponding to the time points, a slope of the fluorescence values is calculated, and the slope can be regarded as an enzyme activity of each well. […] A half inhibitory concentration (IC50) is calculated through an Origin 2021 software. • 3.

[3] = molecular target: T3, neutrophil elastase (NE) (Homo sapiens, UniProt P08246); assay: Inhibition effect of CA on NE protease enzyme activity (Abcam NE protease detection kit ab118971, fluorescence); details: incubated at 37° C. for 5 min; Ex/Em=400/505 nm; FIG. 3
T3 construct: purchased Abcam ab118971
T3 sequence (P08246 30-267): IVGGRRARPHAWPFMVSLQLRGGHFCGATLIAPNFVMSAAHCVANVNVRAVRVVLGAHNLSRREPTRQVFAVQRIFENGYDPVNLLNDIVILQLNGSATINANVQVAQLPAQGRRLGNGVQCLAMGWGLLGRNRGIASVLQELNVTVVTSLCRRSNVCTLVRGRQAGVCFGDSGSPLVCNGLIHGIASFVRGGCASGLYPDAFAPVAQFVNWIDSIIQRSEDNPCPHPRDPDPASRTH
Description: • 1. Experimental materials include a NE protease detection kit (ab118971) of an Abcam company and CA. • 2. Experimental methods are as follows. In a black 96-well plate, a blank well group, a negative control well group and a sample well group are set, and a detection system is 100 μL. The blank well group is added with 75 μL of buffer, the negative control well group is added with 50 μL of NE protease and 25 μL of buffer, the sample well group is added with 50 μL of NE protease and 25 μL of CA solution (respectively with concentrations of 0.00001 μM, 0.0001 μM, 0.001 μM, 0.003 μM, 0.01 μM and 0.1 μM), and the three groups are incubated at a temperature of 37° C. for 5 min. Each well is added with 25 μL of substrate, after mixing evenly, fluorescence value of each well is immediately detected at Ex/Em=400/505 nm, every 20 seconds, and a dynamic process within a range of 0-40 min is observed. Two different time points (T1 and T2) are selected within a linear range of the dynamic process to obtain fluorescence values (RFUT1 and RFUT2) corresponding to the time points, a slope of the fluorescence values is calculated, and the slope can be regarded as an enzyme activity of each well. A formula of the slope is slope=(RFUT2−RFUT1)/(T2−T1). […] A half inhibitory concentration (IC50) is calculated through the Origin 2021 software. • 3.

T2 sequence (O15393 whole entry): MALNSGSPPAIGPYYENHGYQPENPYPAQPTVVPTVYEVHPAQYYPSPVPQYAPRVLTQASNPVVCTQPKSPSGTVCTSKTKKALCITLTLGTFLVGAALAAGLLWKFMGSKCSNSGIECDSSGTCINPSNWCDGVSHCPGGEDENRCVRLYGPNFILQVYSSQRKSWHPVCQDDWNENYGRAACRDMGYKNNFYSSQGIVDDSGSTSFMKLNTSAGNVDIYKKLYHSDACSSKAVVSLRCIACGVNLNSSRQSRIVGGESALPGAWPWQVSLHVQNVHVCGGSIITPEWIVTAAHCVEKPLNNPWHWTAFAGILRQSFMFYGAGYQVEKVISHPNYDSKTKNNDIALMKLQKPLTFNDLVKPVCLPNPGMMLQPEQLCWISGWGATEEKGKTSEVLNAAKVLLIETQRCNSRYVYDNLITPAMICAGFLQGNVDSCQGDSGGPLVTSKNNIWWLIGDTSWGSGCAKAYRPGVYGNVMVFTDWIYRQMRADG

`CCC[C@@H]1NC(=O)[C@@H](NC(=O)[C@H](C)NC(=O)CNC(=O)c2ccc(O)cc2)CNC(=O)[C@H](CS(=O)(=O)O)NC(=O)/C=C/c2csc(n2)[C@H](Cc2ccc(O)cc2)NC(=O)C(=O)[C@H]([C@@H](C)CC)NC1=O` [CA, CyclotheonellazoleA] ({Benzoyl(4-OH)}-GA[Dap][Nva][X1][X2][Cya]; lactam 3-C) showed an IC50 [1] of 159 µM, an IC50 [2] of 19.2 µM and an IC50 [3] of 0.001 µM.
